Consider two compounds from patent US7700347B2, “Methods and apparatuses for conducting assays in animals” (The Forsyth Institute, priority 2005, dated 2010).

For this experiment, the system named is planaria. Put plainly: planaria movement (worm mobility) after drug treatment, automated tracking. Particulars: 24 hours of drug treatment, movement observed for three hours, compared to control carrier (water+DMSO), statistically significant. It is filed as in vivo, Dugesia tigrinia. As for the experimental part: The following methods were used for Examples 5-8. The species of planaria used in these studies was Dugesia tigrinia, obtained from Ward's Natural Science. The planaria colonies were stored in natural spring water at 22.5° C., and kept on a 9 hour light/15 hour dark cycle. The colonies were fed once per week with organic beef liver. Their water was changed several hours after feeding and 3 days following each feeding. Worms were not fed (e.g., they were starved) the week they were used in an experiment because starved worms were less likely to fission during the experiment.
For the duration of an experiment, individual worms were placed in a reaction well and a plurality of reaction wells were arrayed, as shown in FIG. 10. The worms were not fed during the experiment. Each reaction well included electrodes made of a 90%/10% platinum/iridium alloy for delivering current. […]
FIG. 16 summarizes results depicting the effects of two agents on planaria behavior. Specifically, we assessed the effects of two psychiatric drugs that modulate serotonergic signaling, p-chlorophenylalanine (PCPA) and reserpine, on worm mobility.
Briefly, planaria were cultured in the presence of control carrier (water+DMSO), 625 micrograms/mL of PCPA, or 21 micrograms/mL of reserpine. […] The speed, position, and distance traveled of individual worms were monitored following drug treatment and compared to controls. […]

Take `N[C@@H](Cc1ccc(Cl)cc1)C(=O)O` (racemic) [PCPA, p-chlorophenylalanine]: the “effect on planaria movement (worm movement, average speed)” value (625 micrograms/mL in culture) is recorded as “increased planaria movement”.

With `COC(=O)[C@H]1[C@H]2C[C@@H]3c4[nH]c5cc(OC)ccc5c4CCN3C[C@H]2C[C@@H](OC(=O)c2cc(OC)c(OC)c(OC)c2)[C@@H]1OC` [reserpine], the “effect on planaria movement (worm movement, average speed)” value (21 micrograms/mL in culture) is recorded as “decreased planaria movement”.
